According to ChEMBL document CHEMBL4342439, “Targeting Stimulator of Interferon Genes (STING): A Medicinal Chemistry Perspective” (J Med Chem, 2020):

How the values were obtained:
[1] = target: Stimulator of interferon genes protein (Homo sapiens, UniProt Q86WV6, G230A/R293Q/R71H); test: Displacement of [3H]-cGAMP from full length STING HAQ mutant in human THP1 cells by filtration binding assay; format: cell-based
[2] = target: T1, Stimulator of interferon genes protein (Homo sapiens, UniProt Q86WV6); test: Inhibition of STING in human THP1 cells; format: cell-based
[3] = target: T1, Stimulator of interferon genes protein; test: Inhibition of STING in human THP1 cells by IFN reporter gene assay; format: cell-based
[4] = target: T1, Stimulator of interferon genes protein; test: Inhibition of STING in human THP1 cells in presence of PFO by IFN reporter gene assay; format: cell-based
[5] = Inhibition of human STING H232 mutant by SPA assay
[6] = target: T2, Stimulator of interferon genes protein (Mus musculus, UniProt Q3TBT3); test: Binding affinity to mouse STING by ITC assay
T2 sequence (Q3TBT3 whole entry): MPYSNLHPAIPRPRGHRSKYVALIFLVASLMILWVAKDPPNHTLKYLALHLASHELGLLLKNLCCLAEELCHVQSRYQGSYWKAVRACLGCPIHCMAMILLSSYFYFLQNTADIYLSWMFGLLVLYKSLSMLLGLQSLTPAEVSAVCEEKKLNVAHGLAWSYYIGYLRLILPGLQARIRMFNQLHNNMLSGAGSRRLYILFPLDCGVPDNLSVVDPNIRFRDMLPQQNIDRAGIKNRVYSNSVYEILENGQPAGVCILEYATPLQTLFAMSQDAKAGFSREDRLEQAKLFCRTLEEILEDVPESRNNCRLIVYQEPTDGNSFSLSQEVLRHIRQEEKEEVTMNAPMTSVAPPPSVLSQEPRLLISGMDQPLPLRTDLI

[7] = target: T1, Stimulator of interferon genes protein; test: Inhibition of wild type human STING by SPA assay
[8] = target: T2, Stimulator of interferon genes protein; test: Displacement of [3H]-cGAMP from mouse STING by filtration binding assay
[9] = target: T1, Stimulator of interferon genes protein; test: Displacement of [3H]-cGAMP from wild type human STING by filtration binding assay
[10] = target: T1, Stimulator of interferon genes protein; test: Inhibition of STING in human THP1 cells by R232 IRF-luciferase reporter gene assay; format: cell-based
[11] = system: Stimulator of interferon genes protein (Homo sapiens), Q86WV6 [R71H,G230A,R293Q]; test: Effect on full length STING HAQ mutant in human THP1 cells at 10 uM relative to 2',3- cGAMP; format: cell-based
[12] = target: T1, Stimulator of interferon genes protein; test: Inhibition of STING in human THP1 cells in presence of digitonin by IFN reporter gene assay; format: cell-based
[13] = Binding affinity to human STING H232 mutant by ITC assay

Sequence of Stimulator of interferon genes protein (Homo sapiens, UniProt Q86WV6, G230A/R293Q/R71H) (Q86WV6 whole entry R71H/G230A/R293Q): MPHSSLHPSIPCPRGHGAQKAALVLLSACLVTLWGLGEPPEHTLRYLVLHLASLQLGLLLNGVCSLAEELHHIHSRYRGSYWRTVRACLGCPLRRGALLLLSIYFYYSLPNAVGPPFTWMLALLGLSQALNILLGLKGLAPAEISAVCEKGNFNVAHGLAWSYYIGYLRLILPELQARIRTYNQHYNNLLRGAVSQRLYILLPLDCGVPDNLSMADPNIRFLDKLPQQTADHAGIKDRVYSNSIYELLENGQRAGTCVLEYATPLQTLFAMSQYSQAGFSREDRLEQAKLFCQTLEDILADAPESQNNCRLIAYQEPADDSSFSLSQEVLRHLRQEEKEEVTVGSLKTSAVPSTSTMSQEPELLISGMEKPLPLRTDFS
T1 sequence (Q86WV6 whole entry): as the sequence (Q86WV6 whole entry R71H/G230A/R293Q) above, with H71R, A230G, Q293R counted along it
Sequence of Stimulator of interferon genes protein (Homo sapiens), Q86WV6 [R71H,G230A,R293Q] (Q86WV6 whole entry R71H/G230A/R293Q): as the sequence (Q86WV6 whole entry R71H/G230A/R293Q) above

C#C[C@@H]1O[C@@H]2COP(=O)(S)O[C@H]3[C@@H](F)[C@H](n4cnc5c(N)ncnc54)O[C@@H]3COP(=O)(S)O[C@@H]1[C@@H]2O (some centres not stated)
EC50 [1]: < 1 nM

COc1cc2cc(C(=O)CCC(=O)O)sc2cc1OC
EC50 [1]: 1720 nM

Nc1ncnc2c1ncn2[C@@H]1O[C@@H]2CNC(=S)N[C@H]3[C@@H](O)[C@H](n4cnc5c(N)ncnc54)O[C@@H]3CNC(=S)N[C@H]2[C@H]1O
EC50 [2]: 22200 nM

BP1(=O)OC[C@H]2O[C@@H](n3cnc4c(N)ncnc43)[C@H](O)[C@@H]2OP(=O)(O)OC[C@H]2O[C@@H](n3cnc4c(=O)[nH]c(N)nc43)[C@H](O1)[C@@H]2O (some centres not stated)
EC50 [3]: < 30000 nM
EC50 [4]: < 100 nM

CCn1nc(C)cc1C(=O)/N=c1\[nH]c2cc(C(N)=O)cc(OC)c2n1C/C=C/Cn1/c(=N/C(=O)c2cc(C)nn2CC)[nH]c2cc(C(N)=O)cc(OCCCN3CCOCC3)c21
EC50 [5]: 200 nM

COc1cc2sc(C(=O)C[C@H](C)C(=O)O)cc2c2nc(C)oc12
EC50 [1]: 531 nM

Nc1nc2c(ncn2[C@@H]2O[C@@H]3COP(=O)(O)O[C@H]4[C@@H](O)[C@H](n5cnc6c(N)nc(F)nc65)O[C@@H]4COP(=O)(O)O[C@@H]2[C@@H]3O)c(=O)[nH]1
EC50 [1]: 24.6 nM

COc1c(O)cc2oc3cc(O)c(CC=C(C)C)c(O)c3c(=O)c2c1CC=C(C)C [MANGOSTIN]
Kd [6]: 137000 nM

CCn1nc(C)cc1C(=O)Nc1nc2cc(C(N)=O)ccc2n1CCCCn1c(NC(=O)c2cc(C)nn2CC)nc2cc(C(N)=O)ccc21
IC50 [7]: 20 nM

Nc1ncnc2c1ncn2[C@@H]1O[C@@H]2CO[P@@](=O)(S)O[C@@H]3C[C@@H](CO[P@@](=O)(S)O[C@H]2[C@H]1F)O[C@H]3n1cnc2c(N)ncnc21
EC50 [3]: 10200 nM

COc1cc2cc(C(=O)C[C@H](C)C(=O)O)sc2cc1Br
EC50 [1]: 894 nM

COc1c(Cl)ccc2c(=O)c3ccc(C(C)(C)C)cc3n(CC(=O)O)c12
IC50 [8]: < 20000 nM
IC50 [9]: < 20000 nM
IC50 [10]: > 50000 nM

NC[C@H]1[C@H]2OP(=O)(O)OC[C@H]3O[C@@H](n4cnc5c(N)ncnc54)[C@H](O)[C@@H]3OP(=O)(O)OC[C@H]1O[C@H]2n1cnc2c(=O)[nH]c(N)nc21
EC50 [1]: 21.5 nM

Nc1nc2c(ncn2[C@@H]2O[C@@H]3COP(=O)(O)O[C@H]4[C@@H](O)[C@H](n5cnc6c(N)nc(F)nc65)O[C@@H]4COP(=O)(O)O[C@@H]2[C@@H]3O)c(=S)[nH]1
EC50 [1]: 1.7 nM

COc1cc2sc(C(=O)C[C@H](C)C(=O)O)cc2c(F)c1OC
EC50 [1]: 1380 nM

COc1cc2sc(C(=O)C[C@H](C)C(=O)O)cc2cc1Br
EC50 [1]: 2640 nM

C=C1[C@@H](n2cnc3c(N)ncnc32)[C@H](F)[C@@H]2O[P@@](O)(=S)OC[C@H]3O[C@@H](n4cnc5c(=O)[nH]c(N)nc54)[C@H](OP(O)(=S)OC[C@@H]12)[C@@H]3F (some centres not stated)
EC50 [3]: 740 nM
Activity [11]: 430%

COc1cc2sc(C(=O)[C@H]3C[C@H]3C(=O)O)cc2c(F)c1OC
EC50 [1]: 17800 nM

Nc1nc2c(nnn2[C@@H]2O[C@@H]3COP(=O)(O)O[C@H]4[C@@H](O)[C@H](n5cnc6c(N)ncnc65)O[C@@H]4COP(=O)(O)O[C@@H]2[C@@H]3O)c(=O)[nH]1
EC50 [1]: < 1 nM

Nc1nc2c(ncn2[C@@H]2O[C@@]34CO[C@@H]2[C@@H]3O[P@](=O)(S)OC[C@@]23CO[C@@H]([C@H](n5cnc6c(N)ncnc65)O2)[C@@H]3O[P@](=O)(S)OC4)c(=O)[nH]1
EC50 [12]: 19300 nM

Nc1nc2c(ncn2[C@@H]2O[C@@H]3COP(=O)(O)O[C@@H]4[C@H](O)[C@@H](COP(=O)(O)O[C@@H]2[C@@H]3O)O[C@H]4n2cnc3c(N)ncnc32)c(=O)[nH]1
Kd [13]: 2500 nM

CCC[C@H]1[C@H]2OP(=O)(O)OC[C@H]3O[C@@H](n4cnc5c(N)ncnc54)[C@H](O)[C@@H]3OP(=O)(O)OC[C@H]1O[C@H]2n1cnc2c(=O)[nH]c(N)nc21
EC50 [3]: ≤ 100 nM
EC50 [4]: ≤ 30000 nM

COc1cc2cc(C(=O)CCC(=O)OC(C)(C)C)sc2cc1OC
EC50 [1]: 5990 nM

COc1cc2cc(C(=O)C[C@H](C)C(=O)O)sc2cc1OC
EC50 [1]: 2740 nM

COc1cc2sc(C(=O)[C@@H]3C[C@@H]3C(=O)O)cc2c(F)c1OC
EC50 [1]: 599 nM

Nc1ncnc2c1ncn2[C@@H]1O[C@@H]2CNC(=O)N[C@H]3[C@@H](O)[C@H](n4cnc5c(N)ncnc54)O[C@@H]3CNC(=O)N[C@H]2[C@H]1O
EC50 [2]: 25400 nM

BP1(=O)OC[C@H]2O[C@@H](n3cnc4c(=O)[nH]c(N)nc43)[C@H](OP(=O)(O)OC[C@H]3O[C@@H](n4cnc5c(N)ncnc54)[C@H](O)[C@@H]3O1)[C@@H]2O (some centres not stated)
EC50 [3]: < 30000 nM
EC50 [4]: < 100 nM

Nc1nc2c(ncn2[C@@H]2O[C@@H]3CO[P@@](=O)(S)O[C@H]4[C@H]5OC[C@]4(CO[P@@](=O)(S)O[C@H]3[C@H]2O)O[C@H]5n2cnc3c(N)ncnc32)c(=O)[nH]1
EC50 [12]: 5800 nM

CCn1nc(C)cc1C(=O)/N=c1\[nH]c2cc(C(N)=O)ccc2n1C[C@@H](O)c1ccccc1
IC50 [7]: 14000 nM

Nc1ncnc2c1ncn2[C@@H]1O[C@@H]2CO[P@@](=O)(S)O[C@@H]3[C@H](F)[C@@H](CO[P@@](=O)(S)O[C@H]2[C@H]1O)O[C@H]3n1cnc2c(N)ncnc21
EC50 [3]: 11200 nM
EC50 [12]: 399 nM

Nc1ncnc2c1ncn2[C@@H]1O[C@@H]2CO[P@@](=O)(S)O[C@@H]3[C@H](F)[C@@H](CO[P@@](=O)(S)O[C@H]2[C@H]1F)O[C@H]3n1cnc2c(N)ncnc21
EC50 [3]: 4500 nM
EC50 [12]: 190 nM

COc1cc2cc(C(=O)CC(C(=O)O)C(C)C)sc2cc1OC (configuration not stated)
EC50 [1]: 9590 nM

COc1cc2cc(C(=O)CC(C)C(=O)O)sc2cc1OC (configuration not stated)
EC50 [1]: 5550 nM

Nc1nc2c(ncn2[C@@H]2S[C@@H]3COP(=O)(O)O[C@H]4[C@@H](O)[C@H](n5cnc6c(N)ncnc65)O[C@@H]4COP(=O)(O)O[C@@H]2[C@@H]3O)c(=O)[nH]1
EC50 [1]: 1.2 nM
